Data taken from patent publication US8198273B2, “Compounds and methods for kinase modulation, and indications therefor” (Plexxikon Inc., priority 2009, dated 2012).

Legend:
[1] = molecular target: T1, CYP1A2 (Homo sapiens, UniProt P05177); test: CYP1A2 inhibition (fluorescent substrate); assay type: in vitro ADME; settings: CYP1A2, CEC substrate; read-out: Cyp IC50 1A2
T1 sequence (P05177 1-516): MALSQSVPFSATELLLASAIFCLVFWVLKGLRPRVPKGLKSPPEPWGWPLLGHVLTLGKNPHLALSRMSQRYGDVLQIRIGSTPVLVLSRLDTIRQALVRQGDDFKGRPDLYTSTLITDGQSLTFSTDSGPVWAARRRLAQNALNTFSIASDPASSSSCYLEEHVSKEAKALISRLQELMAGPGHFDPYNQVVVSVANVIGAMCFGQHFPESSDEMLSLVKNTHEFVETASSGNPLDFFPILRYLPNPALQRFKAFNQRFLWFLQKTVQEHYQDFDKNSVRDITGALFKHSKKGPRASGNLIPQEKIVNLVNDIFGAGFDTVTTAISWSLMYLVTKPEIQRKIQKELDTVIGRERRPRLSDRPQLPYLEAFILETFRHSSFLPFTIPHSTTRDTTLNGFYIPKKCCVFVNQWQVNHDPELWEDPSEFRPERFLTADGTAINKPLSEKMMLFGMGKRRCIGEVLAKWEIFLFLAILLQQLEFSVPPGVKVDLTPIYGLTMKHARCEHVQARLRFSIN
Summary of the method: (§1)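 10-pt 1:1 serial dilution in co-factor mix (DMSO stock 100 mM); 10 min preincubation, 37 °C; reaction at 37 °C. Readout: fluorescent metabolite of probe substrate. IC50 from signal vs [compound].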

[2] = system: SW620 colon adenocarcinoma cells (wild-type B-RAF); test: SW620 cell growth inhibition (ATPlite); assay type: cell-based; settings: Homo sapiens, SW-620, 72 h; SW620, 3 days incubation
Summary of the method: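 ATPlite luminescence, taken as a cell-number measure, gave IC50 values after a 3-day 37° C, 5% CO2 incubation. Compounds were tested as 8-point threefold titrations, highest final concentration 10 μM, added to cells seeded the day before.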

[3] = molecular target: CYP2D6 (Homo sapiens, UniProt P10635); test: CYP2D6 inhibition (fluorescent substrate); assay type: in vitro ADME; settings: CYP2D6, AMMC substrate; read-out: Cyp IC50 2D6
CYP2D6, sequence (P10635 whole entry): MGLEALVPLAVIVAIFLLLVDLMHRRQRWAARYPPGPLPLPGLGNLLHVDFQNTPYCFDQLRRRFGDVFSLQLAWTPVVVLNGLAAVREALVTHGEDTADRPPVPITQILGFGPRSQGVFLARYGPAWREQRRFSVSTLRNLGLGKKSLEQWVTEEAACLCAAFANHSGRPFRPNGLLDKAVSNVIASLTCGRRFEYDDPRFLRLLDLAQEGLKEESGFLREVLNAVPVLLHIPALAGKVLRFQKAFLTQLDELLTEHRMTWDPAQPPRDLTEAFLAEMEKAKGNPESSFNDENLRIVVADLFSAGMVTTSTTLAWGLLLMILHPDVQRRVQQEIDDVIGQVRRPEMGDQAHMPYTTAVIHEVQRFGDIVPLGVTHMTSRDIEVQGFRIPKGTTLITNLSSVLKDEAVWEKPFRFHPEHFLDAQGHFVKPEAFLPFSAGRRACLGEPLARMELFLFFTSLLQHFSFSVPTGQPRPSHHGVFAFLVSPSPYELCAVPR
Summary of the method: as §1

[4] = molecular target: CYP2C9 (Homo sapiens, UniProt P11712); test: CYP2C9 inhibition (fluorescent substrate); assay type: in vitro ADME; settings: CYP2C9, MFC substrate; read-out: Cyp IC50 2C9
CYP2C9, sequence (P11712 whole entry): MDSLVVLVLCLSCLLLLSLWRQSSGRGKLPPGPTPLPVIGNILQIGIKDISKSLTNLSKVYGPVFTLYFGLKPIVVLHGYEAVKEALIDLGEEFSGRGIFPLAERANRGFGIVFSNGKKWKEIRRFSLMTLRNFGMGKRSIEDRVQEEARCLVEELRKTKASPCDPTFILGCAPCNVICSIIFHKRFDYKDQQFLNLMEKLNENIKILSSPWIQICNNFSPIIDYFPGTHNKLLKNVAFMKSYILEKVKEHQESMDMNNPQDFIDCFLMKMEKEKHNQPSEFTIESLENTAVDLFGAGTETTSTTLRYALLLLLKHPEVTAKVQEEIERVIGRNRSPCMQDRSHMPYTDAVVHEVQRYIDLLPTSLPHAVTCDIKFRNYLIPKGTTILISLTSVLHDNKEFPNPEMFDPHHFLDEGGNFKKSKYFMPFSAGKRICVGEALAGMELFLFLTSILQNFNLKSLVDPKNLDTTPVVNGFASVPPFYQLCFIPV
Summary of the method: as §1

[5] = molecular target: CYP2C19 (Homo sapiens, UniProt P33261); test: CYP2C19 inhibition (fluorescent substrate); assay type: in vitro ADME; settings: CYP2C19, CEC substrate; read-out: Cyp IC50 2C19
CYP2C19, sequence (P33261 whole entry): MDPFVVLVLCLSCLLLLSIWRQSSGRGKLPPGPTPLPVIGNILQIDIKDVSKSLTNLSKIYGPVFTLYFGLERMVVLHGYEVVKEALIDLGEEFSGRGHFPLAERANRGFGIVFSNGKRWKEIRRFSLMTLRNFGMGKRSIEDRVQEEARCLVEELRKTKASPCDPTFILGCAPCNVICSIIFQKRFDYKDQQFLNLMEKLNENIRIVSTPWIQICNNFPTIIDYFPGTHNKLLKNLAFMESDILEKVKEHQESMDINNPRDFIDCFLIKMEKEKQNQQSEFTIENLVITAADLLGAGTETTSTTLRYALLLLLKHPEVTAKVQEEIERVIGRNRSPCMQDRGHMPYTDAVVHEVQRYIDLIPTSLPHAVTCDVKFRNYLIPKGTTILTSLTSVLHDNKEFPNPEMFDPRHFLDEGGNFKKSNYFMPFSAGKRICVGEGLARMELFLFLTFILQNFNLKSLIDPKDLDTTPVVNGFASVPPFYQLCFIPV
Summary of the method: as §1

IC50 [1] [µM]	IC50 [2] [µM]	IC50 [3] [µM]	IC50 [4] [µM]	IC50 [5] [µM]	SMILES
> 10	> 10	> 10	> 10	5 to 10	Cc1cnc2[nH]cc(C(=O)c3c(F)ccc(NS(=O)(=O)c4cc(F)ccc4F)c3F)c2c1 [P-2015, N-[2,4-Difluoro-3-(5-methyl-1H-pyrrolo[2,3-b]pyridine-3-carbonyl)-phenyl]-2,5-difluoro-benzenesulfonamide]
> 10	> 10	5 to 10	> 10	> 10	COc1ncc(-c2cnc3[nH]cc(C(=O)c4c(F)ccc(NS(=O)(=O)c5c(F)cccc5F)c4F)c3c2)cn1 [P-2043, N-{2,4-Difluoro-3-[5-(2-methoxy-pyrimidin-5-yl)-1H-pyrrolo[2,3-b]pyridine-3-carbonyl]-phenyl}-2,6-difluoro-benzenesulfonamide]
> 10	> 10	> 10	< 5	> 10	CCCS(=O)(=O)Nc1ccc(F)c(C(=O)c2c[nH]c3ncc(-c4ccc(S(=O)(=O)N(C)C)cc4)cc23)c1F [P-2185, 4-{3-[2,6-Difluoro-3-(propane-1-sulfonylamino)-benzoyl]-1H-pyrrolo[2,3-b]pyridin-5-yl}-N,N-dimethyl-benzenesulfonamide]
> 10	> 10	> 10	> 10	> 10	COc1ncc(-c2cnc3[nH]cc(C(=O)c4c(F)ccc(NS(=O)(=O)c5ccccc5F)c4F)c3c2)cn1 [P-2041, N-{2,4-Difluoro-3-[5-(2-methoxy-pyrimidin-5-yl)-1H-pyrrolo[2,3-b]pyridine-3-carbonyl]-phenyl}-2-fluoro-benzenesulfonamide]
> 10	> 10	> 10	5 to 10	> 10	N#Cc1cnc2[nH]cc(C(=O)c3cccc(NS(=O)(=O)c4ccccc4F)c3F)c2c1 [P-2051, N-[3-(5-Cyano-1H-pyrrolo[2,3-b]pyridine-3-carbonyl)-2-fluoro-phenyl]-2-fluoro-benzenesulfonamide]
> 10	> 10	5 to 10	5 to 10	< 5	CCCS(=O)(=O)Nc1ccc(F)c(C(=O)c2c[nH]c3ncc(-c4ccc(C#CCN(CC)CC)nc4)cc23)c1F [P-2222, Propane-1-sulfonic acid (3-{5-[6-(3-diethylamino-prop-1-ynyl)-pyridin-3-yl]-1H-pyrrolo[2,3-b]pyridine-3-carbonyl}-2,4-difluoro-phenyl)-amide]
> 10	> 10	> 10	> 10	> 10	N#Cc1cnc2[nH]cc(C(=O)c3c(F)ccc(NS(=O)(=O)c4ccccc4F)c3F)c2c1 [P-2011, N-[3-(5-Cyano-1H-pyrrolo[2,3-b]pyridine-3-carbonyl)-2,4-difluoro-phenyl]-2-fluoro-benzenesulfonamide]
> 10	> 10	> 10	> 10	> 10	COc1cnc2[nH]cc(C(=O)c3c(F)ccc(NS(=O)(=O)c4cc(F)ccc4F)c3F)c2c1 [P-2010, N-[2,4-Difluoro-3-(5-methoxy-1H-pyrrolo[2,3-b]pyridine-3-carbonyl)-phenyl]-2,5-difluoro-benzenesulfonamide]
> 10	> 10	> 10	5 to 10	5 to 10	CCCS(=O)(=O)Nc1ccc(F)c(C(=O)c2c[nH]c3ncc(-c4ccc(OCCCN(C)C)nc4)cc23)c1F [P-2178, Propane-1-sulfonic acid (3-{5-[6-(3-dimethylamino-propoxy)-pyridin-3-yl]-1H-pyrrolo[2,3-b]pyridine-3-carbonyl}-2,4-difluoro-phenyl)-amide]
